Test results as given in US8247211B2, “Glycopeptide antibiotics” (American Cyanamid Company, priority 2001, dated 2012).
≈ marks a conversion by molar mass, not a printed value.

Legend:
Test in all cases: In vitro antibacterial evaluation: minimum inhibitory concentration (MIC), broth dilution method
Type in all cases: cell-based
[1] = test system: Enterococcus sp.; details: 18 hours at 35° C.
In short: (§1)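 Inoculum: 5×10^5 CFU/mL. Range: 64-0.06 μg/mL. Medium: Muller-Hinton II […]; NCCLS M7-A2 broth dilution. Endpoint: lowest concentration inhibiting growth. Strains include methicillin-, penicillin- and/or vancomycin-resistant clinical isolates.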

[2] = test system: Escherichia coli; details: 18 hours at 35° C.
In short: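 Using Muller-Hinton II […] and an inoculum of 5×10^5 CFU/mL, antibiotic dilutions from 64 down to 0.06 μg/mL were tested following NCCLS M7-A2. The MIC is the lowest concentration inhibiting growth, including in methicillin-, penicillin- or vancomycin-resistant clinical isolates.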

[3] = test system: Staphylococcus sp.
In short: as §1

[4] = test system: Streptococcus sp.; details: 18 hours at 35° C.
In short: as §1

[5] = broth dilution, inoculum 5×10^5 CFU/mL

- MIC Enterococcus avium (GC 4558) ([1]; Enterococcus avium (GC 4558)): 2 µg/mL (≈ 1.35 µM)
- MIC Enterococcus faecalis (ATCC 29212) ([1]; Enterococcus faecalis (ATCC 29212)): 4 µg/mL (≈ 2.7 µM)
- MIC Enterococcus faecalis (GC 2242) ([1]; Enterococcus faecalis (GC 2242)): 4 µg/mL (≈ 2.7 µM)
- MIC Enterococcus faecalis (GC 2691) ([1]; Enterococcus faecalis (GC 2691)): 4 µg/mL (≈ 2.7 µM)
- MIC Enterococcus faecalis (GC 3059) ([1]; Enterococcus faecalis (GC 3059)): 4 µg/mL (≈ 2.7 µM)
- MIC Enterococcus faecalis (GC 4552) ([1]; Enterococcus faecalis (GC 4552)): 4 µg/mL (≈ 2.7 µM)
- MIC Enterococcus faecalis (GC 4553) ([1]; Enterococcus faecalis (GC 4553)): 2 µg/mL (≈ 1.35 µM)
- MIC Enterococcus faecalis (GC 4554) ([1]; Enterococcus faecalis (GC 4554)): 4 µg/mL (≈ 2.7 µM)
- MIC Enterococcus faecalis (GC 6189) ([1]; Enterococcus faecalis (GC 6189)): 4 µg/mL (≈ 2.7 µM)
- MIC Enterococcus faecium (GC 2243) ([1]; Enterococcus faecium (GC 2243)): 2 µg/mL (≈ 1.35 µM)
- MIC Enterococcus faecium (GC 4556) ([1]; Enterococcus faecium (GC 4556)): 4 µg/mL (≈ 2.7 µM)
- MIC Enterococcus faecium (GC 4557) ([1]; Enterococcus faecium (GC 4557)): 0.5 µg/mL (≈ 0.337 µM)
- MIC Enterococcus avium (GC 4558) [1, 5]: 2 µg/mL (≈ 1.35 µM)
- MIC Enterococcus faecalis (ATCC 29212) [1, 5]: 4 µg/mL (≈ 2.7 µM)
- MIC Enterococcus faecalis (GC 2242) [1, 5]: 4 µg/mL (≈ 2.7 µM)
- MIC Enterococcus faecalis (GC 2691) [1, 5]: 4 µg/mL (≈ 2.7 µM)
- MIC Enterococcus faecalis (GC 3059) [1, 5]: 4 µg/mL (≈ 2.7 µM)
- MIC Enterococcus faecalis (GC 4552) [1, 5]: 4 µg/mL (≈ 2.7 µM)
- MIC Enterococcus faecalis (GC 4553) [1, 5]: 2 µg/mL (≈ 1.35 µM)
- MIC Enterococcus faecalis (GC 4554) [1, 5]: 4 µg/mL (≈ 2.7 µM)
- MIC Enterococcus faecalis (GC 6189) [1, 5]: 4 µg/mL (≈ 2.7 µM)
- MIC Enterococcus faecium (GC 2243) [1, 5]: 2 µg/mL (≈ 1.35 µM)
- MIC Enterococcus faecium (GC 4556) [1, 5]: 4 µg/mL (≈ 2.7 µM)
- MIC Enterococcus faecium (GC 4557) [1, 5]: 0.5 µg/mL (≈ 0.337 µM)
- MIC Escherichia coli (GC 4559) ([2]; Escherichia coli (GC 4559)): 64 µg/mL (≈ 43.1 µM)
- MIC Escherichia coli (GC 4560) ([2]; Escherichia coli (GC 4560)): 2 µg/mL (≈ 1.35 µM)
- MIC Staphylococcus aureus (ATCC 29213) ([3]; strain ATCC 29213): 2 µg/mL (≈ 1.35 µM)
- MIC Staphylococcus aureus (GC 1131) ([3]; strain GC 1131): 4 µg/mL (≈ 2.7 µM)
- MIC Staphylococcus aureus (GC 3051) ([3]; strain GC 3051): 2 µg/mL (≈ 1.35 µM)
- MIC Staphylococcus aureus (GC 3053) ([3]; strain GC 3053): 4 µg/mL (≈ 2.7 µM)
- MIC Staphylococcus aureus (GC 4541) ([3]; strain GC 4541): 1 µg/mL (≈ 0.674 µM)
- MIC Staphylococcus aureus (GC 4542) ([3]; strain GC 4542): 4 µg/mL (≈ 2.7 µM)
- MIC Staphylococcus aureus-SMITH (GC 4543) ([3]; strain GC 4543): 2 µg/mL (≈ 1.35 µM)
- MIC Staphylococcus aureus (GC 4544) ([3]; strain GC 4544): 4 µg/mL (≈ 2.7 µM)
- MIC Staphylococcus aureus (GC 4545) ([3]; strain GC 4545): 2 µg/mL (≈ 1.35 µM)
- MIC Coagulase Negative Staphylococcus (GC 4547) ([3]; strain GC 4547): 2 µg/mL (≈ 1.35 µM)
- MIC Coagulase Negative Staphylococcus (GC 4548) ([3]; strain GC 4548): 1 µg/mL (≈ 0.674 µM)
- MIC Coagulase Negative Staphylococcus (GC 4549) ([3]; strain GC 4549): 1 µg/mL (≈ 0.674 µM)
- MIC Coagulase Negative Staphylococcus (GC 4551) ([3]; strain GC 4551): 2 µg/mL (≈ 1.35 µM)
- MIC Streptococcus agalactiae (GC 4564) ([4]; Streptococcus agalactiae (GC 4564)): <0.12 µg/mL
- MIC Streptococcus pneumoniae (ATCC 6301) ([4]; Streptococcus pneumoniae (ATCC 6301)): 0.25 µg/mL (≈ 0.169 µM)
- MIC Streptococcus pneumoniae (GC 1894) ([4]; Streptococcus pneumoniae (GC 1894)): <0.12 µg/mL
- MIC Streptococcus pneumoniae (GC 4565) ([4]; Streptococcus pneumoniae (GC 4565)): 0.25 µg/mL (≈ 0.169 µM)
- MIC Streptococcus pyogenes (GC 4563) ([4]; Streptococcus pyogenes (GC 4563)): 0.25 µg/mL (≈ 0.169 µM)
- MIC Streptococcus agalactiae (GC 4564) [4, 5]: <0.12 µg/mL
- MIC Streptococcus pneumoniae (ATCC 6301) [4, 5]: 0.25 µg/mL (≈ 0.169 µM)
- MIC Streptococcus pneumoniae (GC 1894) [4, 5]: <0.12 µg/mL
- MIC Streptococcus pneumoniae (GC 4565) [4, 5]: 0.25 µg/mL (≈ 0.169 µM)
- MIC Streptococcus pyogenes (GC 4563) [4, 5]: 0.25 µg/mL (≈ 0.169 µM)
Compound: CCCCN1CC(C(O)C2NC(=O)C(C(O)C3CNC(=N)N3)NC(=O)C(Cc3ccc(OC4OC(CO)C(OC5OC6COC7(OC6C(O)C5O)C5CC6CC(C5)CC7C6)C(O)C4O)cc3)NC(=O)C(C(C)c3ccccc3)NC(=O)CNC(=O)C(CO)NC2=O)N(C2OC(CO)C(O)C(O)C2O)C1=N (stereo not drawn) [Example 224, Cyclo[glycyl-β-methylphenylalanyl-O-[4-O-[4,6-O-(2-adamantylidene)hexopyranosyl]hexopyranosyl]tyrosyl-3-(2-iminoimidazolidin-4-yl)seryl-3-(1-butyl-3-hexopyranosyl-2-iminoimidazolidin-4-yl)serylseryl]]
- MIC Staphylococcus haemolyticus (GC 4546) ([3]; strain GC 4546): 1 µg/mL (≈ 0.674 µM)
